In series [1] the test system is indomethacin-induced lesions of the stomach. The series is described as follows: anti-ulcer activity (protection from indomethacin-induced stomach lesions). The class given is in vivo. Particulars: Rattus norvegicus, po, male rats, given 1 hour before and 2 hours after 20 mg/kg indomethacin p.o.; dosage protecting 50% of animals from lesions. On the procedure:
The experimental procedure described hereinafter was used to determine the anti-ulcer activity:
A number of groups of 8 male rats each with a body weight of 130-150 g are used for each dosage of a test substance. Prior to the beginning of the experiment the animals receive no food for 24 hours, but receive water ad libitum. Various dosages of the substances to be tested (suspended in 0.5% tragacanth) or the vehicle alone (controls) are administered twice perorally, namely. 1 hour before and 2 hours after the peroral administration 20 mg/kg of indomethacin. In the control animals, this dosage of indomethacin leads to lesions of the stomach within 5 hours. The animals are killed 6 hours after the first administration of the substance under investigation (or of the vehicle alone). The rats which remain protected from the occurrence of macroscopically visible lesions to the mucous membrane of the stomach are counted. The ED50 is that dosage of a test substance at which 50% of the animals are protected from the occurence of such lesions.
(§1) In the following Table there are given for a series of representative compounds of formula I the results of the testing with respect to their anti-ulcer activity and to their gastric secretion inhibiting activity. Moreover, this Table contains data concerning the acute toxicity (LD50 in the case of single oral administration to mice).

The subject of series [2] is gastric acid production caused by 4-methylhistamine. Kind of series: gastric acid secretion-inhibiting activity (4-methylhistamine-stimulated, Heidenhain pouch). The class given is in vivo. Particulars: Canis lupus familiaris, po; p.o. (dry powder in gelatin capsules), conscious beagle hounds, i.v. infusion of 4-methylhistamine; 50% inhibition vs controls. The protocol:
The experimental procedure described hereinafter was used to determine the gastric acid secretion-inhibiting activity:
A part of the stomach fundus of female and male beagle hounds is separated from the remainder of the stomach in the form of a pouch of the Heidenhain type by a modification of the method described in Rudick et al., J. Surgical Research 7, 383-398 (1967). In the pouch there is fitted a steel cannula which is conducted externally through the abdominal wall. Before each experiment the animals receive no food for 18 hours, but receive water ad libitum. They are conscious and standing during the experiment and their gastric acid secretion is stimulated by the intravenous infusion of 4-methylhistamine, a selective […] of the histamine H2 -receptors. The gastric acid production is determined in 15 minute fractions of the stomach pouch juice. As soon as the gastric acid production has a constant value, the substances to be tested are administered orally as a dry powder filled into gelatin capsules. The ED50 is that dosage of a test substance which brings about a 50% inhibition of the gastric acid production caused by 4-methylhistamine in the treated animals in comparison to the controls.
as §1

A short description of series [3]: acute toxicity (single oral administration). Particulars: mouse, in vivo, read-out: Toxicity LD 50.
Excerpt: as §1

The mark [4] stands for this setting: p.o., single oral administration to mice.

Where two headings read alike, the source gives them in different places.

Among the data in US4950677A, “Benzimidazole derivative compounds and method of making” (Hoffmann-La Roche Inc., priority 1987, dated 1990) are ED50 and LD50 values, retold here.

For orientation: ED50 means the midpoint of the dose-response relation.

For `COc1cc[n+](-c2nc3ccc(C(F)(F)F)cc3[nH]2)c(CSCC(C)(C)OCCO)c1C.CS(=O)(=O)[O-]` [A, 2-[[[2-(2-Hydroxyethoxy)-2-methylpropyl]thio]-methyl]-4-methoxy-3-methyl-1-[5-(trifluoromethyl)-2-benzimidazolyl]pyridinium methanesulfonate], the median effective dose (ED50) in series [1] was 4.4 mg/kg; in series [2], 4.9 mg/kg. Moreover, in series [3] (setting [4]), the LD50 fell in the range of 2500 to 5000 mg/kg.

In the case of `COc1cc[n+](-c2nc3cc(C(F)(F)F)ccc3[n-]2)c(CSCC(C)(C)OCCO)c1C` [B, Intramolecularly deprotonized 2-[[[2-(2-hydroxyethoxy)-2-methylpropyl]thio]methyl]-4-methoxy-3-methyl-1-[5-(trifluoromethyl)-2-benzimidazolyl]pyridinium cation], the figures for the 50% effective dose (ED50) in series [1] and in series [2] were 6.1 mg/kg and 3.9 mg/kg, respectively. For the same compound, in series [3] (po), the LD50 lay within 2500 to 5000 mg/kg.

As to `COCCOC(C)(C)CSCc1c(C)c(OC)cc[n+]1-c1nc2ccc(C(F)(F)F)cc2[nH]1.CS(=O)(=O)[O-]` [C, 4-Methoxy-2-[[[2-(2-methoxyethoxy)-2-methylpropyl}thio]methyl]-3-methyl-1-[5-(trifluoromethyl)-2-benzimidazolyl]pyridinium methanesulfonate], the ED50 in series [1] worked out at 6 mg/kg; in series [2], 5.5 mg/kg. Moreover, the LD50 in series [3] (setting [4]) was in the range of 1000 to 2000 mg/kg.

As for `COCCOC(C)(C)CSCc1c(C)c(OC)cc[n+]1-c1nc2cc(C(F)(F)F)ccc2[n-]1` [D, Intramolecularly deprotonized 4-methoxy-2-[[[2-(2-methoxyethoxy)-2-methylpropyl]thio]methyl]-3-methyl-1-[5-(trifluoromethyl)-2-benzimidazolyl]pyridinium cation], the ED50 amounted to 7 mg/kg in series [1] and 4.8 mg/kg in series [2]. In addition, in series [3] (po), the LD50 is 2500 to 5000 mg/kg.

For the compound `COc1cc[n+](-c2nc3ccc(C(F)(F)F)cc3[nH]2)c(CSCC(C)(C)OC(C)=O)c1C.CS(=O)(=O)[O-]` [E, 2-[[(2-Acetoxy-2-methylpropyl)thio]methyl]-4-methoxy-3-methyl-1-[5-(trifluoromethyl)-2-benzimidazolyl]pyridinium methanesulfonate], the ED50 in series [1] turned out to be 3.2 mg/kg; in series [2], 3 mg/kg. The LD50 in series [3] (setting [4]) fell in the range of 2500 to 5000 mg/kg.

`COc1cc[n+](-c2nc3ccc(C(F)(F)F)cc3[nH]2)c(CSCC(C)(C)OC(C)=O)c1C.[Cl-]` [F, 2-[[(2-Acetoxy-2-methylpropyl)thio]methyl]-4-methoxy-3-methyl-1-[5-(trifluoromethyl)-2-benzimidazolyl]pyridinium chloride]: the ED50 is 1.9 mg/kg in series [1] and 1.8 mg/kg in series [2]. The LD50 in series [3] (setting [4]) fell in the range of 1250 to 2500 mg/kg.

For the compound `COc1cc[n+](-c2nc3cc(C(F)(F)F)ccc3[n-]2)c(CSCC(C)(C)OC(C)=O)c1C` [G, Intramolecularly deprotonized 2-[[(2-acetoxy-2-methylpropyl)thio]methyl]-4-methoxy-3-methyl-1-[5-(trifluoromethyl)-2-benzimidazolyl]pyridinium cation], the ED50 in series [1] was 2.8 mg/kg; in series [2] it was 1.5 mg/kg. Moreover, the LD50 in series [3] (po) lay in the range of 2500 to 5000 mg/kg.

With `CCOC(C)(C)CSCc1c(C)c(OC)cc[n+]1-c1nc2ccc(C(F)(F)F)cc2[nH]1.CS(=O)(=O)[O-]` [H, 2-[[(2-Ethoxy-2-methylpropyl)thio]methyl]-4-methoxy-3-methyl-1-[5-(trifluoromethyl)-2-benzimidazolyl]pyridinium methanesulfonate], the ED50 was 3.2 mg/kg in series [1] and 4.3 mg/kg in series [2].

As for `CCOC(C)(C)CSCc1c(C)c(OC)cc[n+]1-c1nc2ccc(C(F)(F)F)cc2[nH]1.[Cl-]` [I, 2-[[(2-Ethoxy-2-methylpropyl)thio]methyl]-4-methoxy-3-methyl-1-[5-(trifluoromethyl)-2-benzimidazolyl]pyridinium chloride], the ED50 is 4.1 mg/kg in series [1] and 3.8 mg/kg in series [2]. Besides, the LD50 in series [3] (setting [4]) was in the range of 2500 to 5000 mg/kg.

On to `CCOC(C)(C)CSCc1c(C)c(OC)cc[n+]1-c1nc2cc(C(F)(F)F)ccc2[n-]1` [J, Intramolecularly deprotonized 2-[[(2-ethoxy-2-methylpropyl)thio]methyl]-4-methoxy-3-methyl-1-[5-(trifluoromethyl)-2-benzimidazolyl]pyridinium cation], for which the ED50 in series [1] worked out at 4.6 mg/kg; in series [2], 3.7 mg/kg. Besides, the LD50 in series [3] (po) was more than 5000 mg/kg.
